System: Penicillium digitatum (Pd)
Assay: Biocontrol efficacy on post-harvest green mold decay of harvested oranges (online spraying, drying tunnel, storage)
Type: in vivo
Settings: online spraying at 2 L/tonne of fruits, dried in drying tunnel, observed 36 days after storage, amounts per treatment as in Table 1
Description: A tank mix bio-control combination was prepared consisting of Candida oleophila strain O and sodium bicarbonate. […] The microbial component was applied as water dispersible granules. The concentration of C. oleophila strain O was 2.33 g/L (0.23% w/v) and the biologically effective amount of the strain was 3×10^10 cfu/gm. The concentration of the C. oleophila strain O used was varying between 0.1 to 5% w/v of the combination.
The biocontrol efficacy of the combination of the present invention on post-harvest fungal disease caused by green mold was evaluated. […] The harvested oranges were treated with the biocontrol combination and then subjected to drying in a drying tunnel. […] The oranges were treated by online spraying of each treatment. The biologically effective amount of Candida oleophila is 3×10^10 cfu/g of the combination. Each application is made at a rate 2 L/tonne of citrus fruits. The observations were made on the treated oranges and the untreated control at 36 days after storage.

Structure (SMILES): O=C([O-])O.[Na+] [Sodium bicarbonate]
- % decay on fruits: 15%

Source: patent US20250143289A1, “BIO-CONTROL COMBINATIONS, COMPOSITIONS AND METHOD OF USE” (DECCO WORLDWIDE POST-HARVEST HOLDINGS B.V., priority 2022, published 2025)
